Target: human Factor XIa (Homo sapiens (Human), UniProt P03951)
Experiment: Factor XIa Assay
Format: biochemical
Conditions: purified human Factor XIa 40 pM, Z-Gly-Pro-Arg-AFC 100 μM, pH 7.4; read-out: FXIa Ki
Outline: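 Purified human FXIa (40 pM final) hydrolysing fluorogenic Z-Gly-Pro-Arg-AFC (100 μM) in 50 mM HEPES pH 7.4, 150 mM NaCl, 5 mM CaCl2, 0.1% PEG 8000, at room temperature or 37° C. Initial velocities measured after enzyme–inhibitor equilibration; Ki from Vo/Vi versus [I], assuming competitive inhibition.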

human Factor XIa, sequence (P03951 388-625): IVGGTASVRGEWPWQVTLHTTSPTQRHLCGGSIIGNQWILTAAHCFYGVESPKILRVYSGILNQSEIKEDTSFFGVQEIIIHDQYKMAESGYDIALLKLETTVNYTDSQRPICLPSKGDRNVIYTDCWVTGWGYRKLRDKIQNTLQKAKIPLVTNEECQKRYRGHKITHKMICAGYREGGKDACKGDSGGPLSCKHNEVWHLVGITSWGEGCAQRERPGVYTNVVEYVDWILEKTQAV
human Factor XIa, sequence (P03951 19-387 partner): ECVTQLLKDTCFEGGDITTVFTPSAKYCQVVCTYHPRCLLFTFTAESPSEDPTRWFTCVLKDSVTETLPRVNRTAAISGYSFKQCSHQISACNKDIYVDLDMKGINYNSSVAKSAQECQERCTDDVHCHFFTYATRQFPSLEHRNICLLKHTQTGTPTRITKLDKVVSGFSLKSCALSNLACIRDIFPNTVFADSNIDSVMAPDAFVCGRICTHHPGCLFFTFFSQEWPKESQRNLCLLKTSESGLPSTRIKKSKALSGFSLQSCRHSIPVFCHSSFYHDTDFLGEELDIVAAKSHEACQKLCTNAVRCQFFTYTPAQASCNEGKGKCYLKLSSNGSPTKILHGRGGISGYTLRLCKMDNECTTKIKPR

`COC(=O)Nc1ccc(C(=O)N[C@@]2(C(=O)N3CCC4(C3)OC(=O)Nc3ccc(Cl)cc34)C[C@@H]2c2ccccc2)cc1` (stereo partly drawn) [Example 25, methyl (4-(((1S,2R)-1-(6-chloro-2-oxo-1,2-dihydrospiro[benzo[d][1,3]oxazine-4,3′-pyrrolidin]-1′-ylcarbonyl)-2-phenylcyclopropyl)carbamoyl)phenyl)carbamate] and `COC(=O)Nc1ccc(C(=O)NC2(C(=O)N3CCC4(C3)OC(=O)Nc3ccc(Cl)cc34)Cc3ccccc3C2)cc1` (racemic) [Example 26, methyl (4-((2-(6-chloro-2-oxo-1,2-dihydrospiro[benzo[d][1,3]oxazine-4,3′-pyrrolidin]-1′-ylcarbonyl)-2,3-dihydro-1H-inden-2-yl)carbamoyl)phenyl)carbamate] cannot be ordered by Ki: ≥ 5000 nM for the first, ≥ 5000 nM for the second.

First: COC(=O)Nc1ccc2[nH]c([C@@H](Cc3ccccc3)C(=O)N3CC[C@]4(C3)OC(=O)Nc3ccc(Cl)cc34)nc2c1 [Example 131d, methyl (2-((R)-1-((S)-6-chloro-2-oxo-1,2-dihydrospiro[benzo[d][1,3]oxazine-4,3′-pyrrolidin]-1′-yl)-1-oxo-3-phenylpropan-2-yl)-1H-benzo[d]imidazol-5-yl)carbamate]
Second: COC(=O)Nc1ccc(C(=O)N[C@@H](Cc2ccccc2)C(=O)N2CC3(C2)OC(=O)Nc2ccc(Cl)cc23)cc1 [Example 5, (S)-methyl (4-((1-(6′-chloro-2′-oxo-1′,2′-dihydrospiro[azetidine-3,4′-benzo[d][1,3]oxazin]-1-yl)-1-oxo-3-phenylpropan-2-yl)carbamoyl)phenyl)carbamate]
The Ki of the first is lower: 5000 nM for the first, > 5000 nM for the second. The first binds more tightly here.

First: COC/C=C/c1ccc(C[C@H](NC(=O)c2ccc(NC(=O)OC)cc2)C(=O)N2CC[C@@]3(C2)OC(=O)Nc2ccc(Cl)cc23)cc1 [Example 80, methyl (4-(((S)-1-((R)-6-chloro-2-oxo-1,2-dihydrospiro[benzo[d][1,3]oxazine-4,3′-pyrrolidin]-1′-yl)-3-(4-((E)-3-methoxyprop-1-en-1-yl)phenyl)-1-oxopropan-2-yl)carbamoyl)phenyl)carbamate]
Second: COC(=O)Nc1ccc(C(=O)N[C@@H](Cc2ccccc2)C(=O)N2CC[C@]3(C2)OC(=O)Nc2ncc(Cl)cc23)cc1 [Example 1a, methyl (4-(((S)-1-((S)-6-chloro-2-oxo-1,2-dihydrospiro[pyrido[2,3-d][1,3]oxazine-4,3′-pyrrolidin]-1′-yl)-1-oxo-3-phenylpropan-2-yl)carbamoyl)phenyl)carbamate]
The Ki of the first is 46-fold lower: 75 nM for the first, 3470 nM for the second.

`COC(=O)Nc1ccc(C(=O)N[C@@H](CC(=O)NC2COC2)C(=O)N2CC[C@@]3(C2)OC(=O)Nc2ccc(Cl)cc23)cc1` [Example 93, methyl (4-(((S)-1-((R)-6-chloro-2-oxo-1,2-dihydrospiro[benzo[d][1,3]oxazine-4,3′-pyrrolidin]-1′-yl)-4-(oxetan-3-ylamino)-1,4-dioxobutan-2-yl)carbamoyl)phenyl)carbamate] and `COC(=O)Nc1ccc(C(=O)N[C@@H](CC(=O)NC2CCC2)C(=O)N2CCC[C@@]3(C2)OC(=O)Nc2ccc(Cl)cc23)cc1` [Example 86, methyl (4-(((S)-1-((R)-6-chloro-2-oxo-1,2-dihydrospiro[benzo[d][1,3]oxazine-4,3′-piperidin]-1′-yl)-4-(cyclobutylamino)-1,4-dioxobutan-2-yl)carbamoyl)phenyl)carbamate] are within 1.5-fold of each other in Ki: 45.8 nM for the first, 33.7 nM for the second.

Compared with `COC(=O)Nc1ccc(C(=O)N[C@@H](C)C(=O)N2CCC[C@@]3(C2)OC(=O)Nc2ccc(Cl)cc23)cc1` [Example 55, methyl (4-(((S)-1-((R)-6-chloro-2-oxo-1,2-dihydrospiro[benzo[d][1,3]oxazine-4,3′-piperidin]-1′-yl)-1-oxopropan-2-yl)carbamoyl)phenyl)carbamate], `O=C1Nc2ccc(Cl)cc2[C@]2(CCN(C(=O)[C@@H](Cc3ccccc3)C(=O)Nc3ccc(C(=O)O)cc3)C2)O1` [Example 121a, 4-((S)-2-benzyl-3-((S)-6-chloro-2-oxo-1,2-dihydrospiro[benzo[d][1,3]oxazine-4,3′-pyrrolidin]-1′-yl)-3-oxopropanamido)benzoic acid] is higher in Ki: 93.2 nM for the first, ≥ 5000 nM for the second. The first binds more tightly here.

`O=C1Nc2ccc(Cl)cc2[C@@]2(CCCN(C(=O)C(Cc3ccc(F)cc3)c3nc4ccc(F)cc4[nH]3)C2)O1` (stereo partly drawn) [Example 133, (4R)-6-chloro-1′-(2-(6-fluoro-1H-benzo[d]imidazol-2-yl)-3-(4-fluorophenyl)propanoyl)spiro[benzo[d][1,3]oxazine-4,3′-piperidin]-2(1H)-one] and `O=C1Nc2ccc(Cl)cc2[C@@]2(CCCN(C(=O)C(Cc3ccc(F)cc3)c3nc(Cl)c(-c4ccc(C(=O)O)cc4)[nH]3)C2)O1` (stereo partly drawn) [Example 128, 4-(4-chloro-2-(1-((R)-6-chloro-2-oxo-1,2-dihydrospiro[benzo[d][1,3]oxazine-4,3′-piperidin]-1′-yl)-3-(4-fluorophenyl)-1-oxopropan-2-yl)-1H-imidazol-5-yl)benzoic acid] are the same in Ki: 8750 nM for the first, 8750 nM for the second.

`NC(=O)c1n[nH]c2c1CN(C(=O)N[C@@H](Cc1ccccc1)C(=O)N1CCC3(C1)OC(=O)Nc1ccc(Cl)cc13)C2` (stereo partly drawn) [Example 278, N5-((2S)-1-(6-chloro-2-oxo-1,2-dihydrospiro[benzo[d][1,3]oxazine-4,3′-pyrrolidin]-1′-yl)-1-oxo-3-phenylpropan-2-yl)-4,6-dihydropyrrolo[3,4-c]pyrazole-3,5(1H)-dicarboxamide] and `COC(=O)Nc1ccc(-c2nnc([C@H](Cc3ccccc3)C(=O)N3CC[C@@]4(C3)OC(=O)Nc3ccc(Cl)c(F)c34)o2)cc1` [Example 129A, methyl (4-(5-((S)-1-((R)-6-chloro-5-fluoro-2-oxo-1,2-dihydrospiro[benzo[d][1,3]oxazine-4,3′-pyrrolidin]-1′-yl)-1-oxo-3-phenylpropan-2-yl)-1,3,4-oxadiazol-2-yl)phenyl)carbamate] cannot be ordered by Ki: 5000 nM for the first, > 875 nM for the second.

Same assay, conditions: read-out: FXIa Ki

`N#Cc1ccc(C(=O)N[C@@H](Cc2ccccc2)C(=O)N2CCC3(C2)OC(=O)Nc2ccc(Cl)cc23)cn1` (some centres unmarked) [Example 152] and `O=C1Nc2ccc(Cl)cc2C2(CCN(C(=O)[C@H](Cc3ccccc3)NC(=O)c3ccc(-n4ccnc4)nc3)C2)O1` (some centres unmarked) [Example 159] are within 1.5-fold of each other in Ki: 1020 nM for the first, 743 nM for the second.

Compared with `O=C1Nc2ccc(Cl)cc2C2(CCN(C(=O)[C@H](Cc3ccccc3)NC(=O)c3ccc(C4(C(=O)O)CC4)cc3)C2)O1` (stereo partly drawn) [Example 160, 1-(4-(((2S)-1-(6-chloro-2-oxo-1,2-dihydrospiro[benzo[d][1,3]oxazine-4,3′-pyrrolidin]-1′-yl)-1-oxo-3-phenylpropan-2-yl)carbamoyl)phenyl)cyclopropanecarboxylic acid], `O=C1Nc2ccc(Cl)cc2C2(CCN(C(=O)[C@H](Cc3ccccc3)NC(=O)c3cccc(N4CCNC4=O)c3)C2)O1` (stereo partly drawn) [Example 169, N-((2S)-1-(6-chloro-2-oxo-1,2-dihydrospiro[benzo[d][1,3]oxazine-4,3′-pyrrolidin]-1′-yl)-1-oxo-3-phenylpropan-2-yl)-3-(2-oxoimidazolidin-1-yl)benzamide] is 6.5-fold lower in Ki: 5000 nM for the first, 774 nM for the second. The second binds more tightly here.

Going from `O=C1CS(=O)(=O)c2cc(C(=O)N[C@@H](Cc3ccccc3)C(=O)N3CCC4(C3)OC(=O)Nc3ccc(Cl)cc34)ccc2N1` (stereo partly drawn) [Example 193, N-((2S)-1-(6-chloro-2-oxo-1,2-dihydrospiro[benzo[d][1,3]oxazine-4,3′-pyrrolidine]-1′-yl)-1-oxo-3-phenylpropan-2-yl)-3-oxo-3,4-dihydro-2H-benzo[b][1,4]thiazine-7-carboxamide 1,1-dioxide] to `Nc1ccc(C(=O)N[C@@H](CC2CC2)C(=O)N2CCC[C@@]3(C2)OC(=O)Nc2ccc(Cl)cc23)cn1` [Example 205], the Ki falls from 145 nM to 72.2 nM (2-fold). The second binds more tightly here.
